In US20100151486A1, “OSTEOPONTIN FUNCTIONAL EPITOPES, MONOCLONAL ANTIBODIES AGAINST THE EPITOPES AND USES THEREOF” (SHANGHAI NATIONAL ENGINEERING RESEARCH CENTER OF A, priority 2007, published 2010):

Key:
[1] = test system: human vascular endothelial cell (HUVEC); assay: HUVEC proliferation by 3H-TdR incorporation; assay type: cell-based; conditions: M200+1% BSA+OPN; 24 hours
Description: HUVEC cell proliferation was measured by the ^3H-TdR incorporation method to determine the protective effect of OPN on cell survival and the inhibitory effect of the anti-OPN antibodies on the OPN protection. Each well of a 96-well plate was inoculated with 2×10^4 HUVECs and cultured in a complete medium for 24 hours. The cells were then treated as following for 24 hours: […]
iv. M200+1% BSA+OPN+murine anti-OPN antibody 1A12 v. M200+1% , BSA+OPN+human-murine chimeric anti-OPN antibody c1A12 vi. M200+1% BSA+OPN+humanized anti-OPN antibody h1A12 vii. M200+1% BSA+OPN+irrelevant antibody
24 hours later, 1 uCi/well ^3H-thymidine was added and, after being incubated at 37° C. for 6 hours, washed once with PBS. The plate was treated with ice-cold 10% trichloroacetic acid/H2O at 4° C. for 10 min, and then washed for two times with, ice-cold ddH2O. Cytolysis was conducted by adding into each well 0.1 ml of 0.5 N NaOH, 0.5% SDS at room temperature for 10 min. After adding 0.2 ml of 0.5 N HCl and mixing, the cells were collected using a multiple cell collector.

[2] = test system: chicken embryo chorioallantoic membrane (CAM); assay: Chicken embryo chorioallantoic membrane (CAM) angiogenesis assay; assay type: in vivo; conditions: human OPN 250 ng; P<0.01
Description: The Leghorn chicken embryos were purchased from the farm with a fertilization rate of >90%. The 8-day old chicken embryos were selected. After sterilization, a small hole was drilled in the center of the top air chamber of the embryo with a lancet, the surrounding shell with the inner membrane was removed with caution to create an opening of 1 cm×1 cm. Then the following analytes/gelatin sponge were added to the CAM surface: i) PBS; ii) HOPN; iii) human OPN (250 ng); iv) human OPN (250 ng)+the irrelevant antibody as control (1 μg); v) human OPN (250 ng)+the murine anti-OPN antibody 1A12 (1 μg); vi) human OPN (250 ng)+the murine-human chimeric anti-OPN antibody c1A12 (1 μg); vii) human OPN (250 ng)+the humanized anti-OPN antibody h1A1.2 (1 μg).
The analytes/gelatin sponge were added to the CAM surface, which was far away from the already-formed dense vascular network. […] The number of vessels within an area edging 2 mm from the edges of the carrier slide was counted under a dissecting microscope to study the angiogenesis using the “vascular index” (Ribatti, D., B. Nico, A. Vacca et al., The gelatin sponge-chorioallantoic membrane assay. Nat Protoc, 2006, 1 (1): 85-91). The number of vessel was counted at the same magnification under the dissecting microscope. The result in each sample group was expressed as “mean±standard deviation (x±S)”. […]

[3] = molecular target: T1, human osteopontin (human OPN protein) (human, UniProt P10451 17-314, limits assumed); assay: Western blot on purified recombinant OPN
T1 construct: The isoform follows from the 963 bp PCR fragment and is not otherwise stated; also called hOPN

[4] = molecular target: T1, human osteopontin (human OPN protein); assay: ELISA, plate coated with OPN 2 ug/ml, COS-1 supernatant, HRP-rabbit anti-human IgG
Description: An ELISA plate was coated with 2 ug/ml OPN. The binding activity of the humanized antibody obtained from the transfection was detected by ELISA. […] The amino acid sequences of the h1A12HBb's and the h1A12Lb's variable regions were shown in FIG. 4, SEQ ID NO: 18 and SEQ ID NO: 19 show the nucleotide sequence and the amino acid sequence of h1A12Hb's variable region respectively. SEQ ID NO: 20 and SEQ ID NO: 21 show the nucleotide sequence and the amino acid sequence of h1A12Lb's variable region respectively. The genes of the humanized antibody's VH and VL (h1A12VHb/h1A12VLb) were synthesized respectively. […] Then, expression vectors of the light and the heavy chain were used to co-transfect the COS-1 cells. The antibody's antigen-binding activity was determined by ELISA. Specifically, an ELISA plate was coated with OPN protein (2 ug/ml) coated at 4° C. overnight, and was blocked with 2% BSA-PBS for 2 h at 37° C. […] HRP-rabbit anti-human IgG was added into the plate for binding reaction (incubated at 37° C. for 1 h).

T1 sequence (P10451 17-314 limits assumed): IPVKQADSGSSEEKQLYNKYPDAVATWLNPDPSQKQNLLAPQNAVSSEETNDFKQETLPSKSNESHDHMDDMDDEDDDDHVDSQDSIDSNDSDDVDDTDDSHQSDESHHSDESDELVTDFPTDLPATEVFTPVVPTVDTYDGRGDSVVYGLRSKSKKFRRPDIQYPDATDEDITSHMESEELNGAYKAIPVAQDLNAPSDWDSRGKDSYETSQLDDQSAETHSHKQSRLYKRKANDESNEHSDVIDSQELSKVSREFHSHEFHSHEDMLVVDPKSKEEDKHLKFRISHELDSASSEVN

Which “3H-TdR incorporation relative to the 1% BSA treatment group” value [1] does the source give for “OPN: human osteopontin protein expressed in Pichia yeast and purified (Example 3)” here?
The value was 3.08±0.64 times.

And the “angiogenesis in the chicken embryo's CAM in comparison with PBS” value [2]?
The value was “significantly enhance”.

B1: murine anti-human OPN monoclonal antibody 1A12 (antibody, V domains shown)
VH: QVQLEQSGPELVKPGASVKMSCKSSGYTFTTYVMHWVKQKPGQGLEWIGYINPYNDGSKYNEKFKGKATLTSDKSSNTAYMELSSLTSEDSAVYYCASHYGGSPAYWGQGTLVTVSA
VL: DILMTQTPLSLPVSLGDQASISCRSSQSLVHSNGNTYLHWYLQKPGQSPKLLIYKVSNRFSGVPDRFSGSGSGTDFTLKISRVEAEDLGVYFCSQSTHVPWTFGGGTKLEIKR
notes: Hybridoma antibody purified from mouse ascites on protein A. Mouse constant regions; also called mouse anti-hOPN mAb 1A12; anti-OPN mAb 1A12
Does B1 bind [3]?
Result: binds

B2: human-mouse chimeric anti-hOPN antibody c1A12 (antibody, human IgG1, kappa, V domains shown)
VH: QVQLEQSGPELVKPGASVKMSCKSSGYTFTTYVMHWVKQKPGQGLEWIGYINPYNDGSKYNEKFKGKATLTSDKSSNTAYMELSSLTSEDSAVYYCASHYGGSPAYWGQGTLVTVSA
VL: DILMTQTPLSLPVSLGDQASISCRSSQSLVHSNGNTYLHWYLQKPGQSPKLLIYKVSNRFSGVPDRFSGSGSGTDFTLKISRVEAEDLGVYFCSQSTHVPWTFGGGTKLEIKR
notes: Tested as COS-1 supernatant in the ELISA and as CHO-purified antibody in the cell assays; also called chimeric antibody c1A12
Does B2 bind [4]?
Result: binds
